According to ChEMBL document CHEMBL1153550, “In vitro study of Candida tropicalis isolates exhibiting paradoxical growth in the presence of high concentrations of caspofungin” (2007):
Values after ≈ are worked out from the molar mass of the structure shown.

Assays:
Format in all cases: functional
Candida tropicalis [1] = test: Antifungal activity against Candida tropicalis isolate 6 in RPMI 1640 medium by broth dilution susceptibility test
Candida tropicalis [2] = test: Antifungal activity against Candida tropicalis isolate 13 in RPMI 1640 medium by broth dilution susceptibility test
Candida tropicalis [3] = test: Antifungal activity against Candida tropicalis isolate 4 in RPMI 1640 medium by broth dilution susceptibility test
Candida tropicalis [4] = test: Antifungal activity against Candida tropicalis ATCC 750 in RPMI 1640 medium by broth dilution susceptibility test
Candida tropicalis [5] = test: Antifungal activity against Candida tropicalis isolate 8 in RPMI 1640 medium by broth dilution susceptibility test
Candida tropicalis [6] = test: Antifungal activity against Candida tropicalis isolate 15 in RPMI 1640 medium by broth dilution susceptibility test
Candida tropicalis [7] = test: Antifungal activity against Candida tropicalis isolate 5 in RPMI 1640 medium by broth dilution susceptibility test
Candida tropicalis [8] = test: Antifungal activity against Candida tropicalis isolate 7 in RPMI 1640 medium by broth dilution susceptibility test

SMILES	MIC (Candida tropicalis [1]) [µg/mL]	MIC (Candida tropicalis [2]) [µg/mL]	MIC (Candida tropicalis [3]) [µg/mL]	MIC (Candida tropicalis [4]) [µg/mL]	MIC (Candida tropicalis [5]) [µg/mL]	MIC (Candida tropicalis [6]) [µg/mL]	MIC (Candida tropicalis [7]) [µg/mL]	MIC (Candida tropicalis [8]) [µg/mL]
C[C@@H]1[C@H](O)[C@@H](C)/C=C/C=C/C=C/C=C/C=C/C=C/C=C/[C@H](O[C@@H]2O[C@H](C)[C@@H](O)[C@H](N)[C@@H]2O)C[C@@H]2O[C@](O)(C[C@@H](O)C[C@@H](O)[C@H](O)CC[C@@H](O)C[C@@H](O)CC(=O)O[C@H]1C)C[C@H](O)[C@H]2C(=O)O [AMPHOTERICIN B]	2 (≈ 2.16 µM)	2 (≈ 2.16 µM)	2 (≈ 2.16 µM)	1 (≈ 1.08 µM)	2 (≈ 2.16 µM)	2 (≈ 2.16 µM)	2 (≈ 2.16 µM)	2 (≈ 2.16 µM)
OC(Cn1cncn1)(Cn1cncn1)c1ccc(F)cc1F [FLUCONAZOLE]	0.25 (≈ 0.816 µM)	0.5 (≈ 1.63 µM)	0.5 (≈ 1.63 µM)	1 (≈ 3.27 µM)	0.5 (≈ 1.63 µM)	0.25 (≈ 0.816 µM)	0.25 (≈ 0.816 µM)	0.25 (≈ 0.816 µM)
Nc1nc(=O)[nH]cc1F [FLUCYTOSINE]	0.12 (≈ 0.93 µM)	0.12 (≈ 0.93 µM)	0.12 (≈ 0.93 µM)	0.12 (≈ 0.93 µM)	0.12 (≈ 0.93 µM)	0.12 (≈ 0.93 µM)	0.12 (≈ 0.93 µM)	0.12 (≈ 0.93 µM)
